According to US20060264418A1, “6-(2,2,2-Trifluoroethylamino-7-chloro-2,3,4,5-tetrahydro-1h-benzo[d] azephine as a 5-ht2c receptor agonist” (priority 2003, published 2006):

How the values were obtained:
D2 dopaminergic receptor = D2 dopaminergic receptor (Homo sapiens, UniProt P14416); assay: Radioligand receptor binding assay, D2 dopaminergic
male Long-Evans rats [1] = assay: Chronic feeding assay; type: in vivo, rat
Description: (§1) Animals: Obtain male Long-Evans rats (Harlan Sprague-Dawley, Indianapolis, Ind.) that are approximately one hundred-days old and have been maintained on a calorie rich diet since weaning (TD 95217, 40% calories from fat; Teklad, Madison, Wis.). House the rats individually with a 12 hr.:12 hr. light:dark cycle (lights on from about 22:00 hr. to about 10:00 hr.) and maintain rats on the same diet (TD 95217) with free access to water, for about 1-2 weeks to acclimate the rats to the environment. Dose rats orally with vehicle (10% acacia with 0.15% saccharin in water) once daily for at least 1 day (typically 1-2 days) to acclimate the rats to the procedures. Randomize the rats into groups so each group has similar mean body weights.
Chronic Feeding Assay: At between approximately 8:00 hr. and 10:00 hr. on day one of the assay, weigh and orally dose each rat with vehicle or test compound and return the animal to its home cage, with free access to food (pre-weighed) and water. For each of days 2-15, at between approximately 8:00 hr. and 10:00 hr., measure rat body weight and the weight of food consumed in the last 24 hr. period, and administer daily oral dose of test compound or vehicle. On days −2 and 15 measure total fat mass and lean mass by nuclear magnetic resonance (NMR) using an EchoMRI™ system (Echo Medical Systems, Houston Tex.). (See Frank C. Tinsley, Gersh Z. Taicher, and Mark L. Heiman, “Evaluation of a New Quantitative Magnetic Resonance (QMR) Method for Mouse Whole Body Composition Analysis”, Obesity Research, submitted May 1, 2003.)

male NIH Swiss mice = assay: Nestlet shredding; type: in vivo, mouse; conditions: 30 min.
Description: Mice naturally will construct nests of material available in their living environment. Since this behavior is obsessive in nature, it has been used to model OCD (Mia Li, Denise Morrow and Jeffrey M. Witkin, “Decreases in nestlet shredding of mice by serotonin uptake inhibitors: comparison with marble burying”, Psychopharmacology, submitted Jul. 14, 2003). House experimentally-naïve male, NIH Swiss mice (Harlan Sprague-Dawley, Indianapolis, Ind.) weighing between 28-35 g in groups of 12 for at least three days prior to testing in a vivarium with a 12 hr. light/dark cycle. Conduct experiments during the light cycle in an experimental room with normal overhead fluorescent lighting. Dose mice with vehicle or test compound and after a specified pretreatment interval (generally 30 min.), place the mice individually in a 17×28×12 cm high plastic tub with about 5 mm sawdust shavings on the floor along with a pre-weighed multi-ply gauze pad (51 mm square). After 30 min., weigh the remainder of the gauze pad not removed by the mouse. Determine the weight of the gauze used for nestlet construction by subtraction. Compare the results for test compound treated mice to the results for vehicle control treated mice with Dunnett's test.
Clinically effective OCD treatment standard compounds suppress nestlet shredding at doses that are devoid of motor-impairing effects as measured by the rotorod test. […]

[2] = target: alpha 1 adrenergic receptor; assay: Radioligand receptor binding assay, alpha 1 adrenergic
male Long-Evans rats [3] = assay: Calorimetric acute feeding assay; type: in vivo, rat; conditions: oral dose
Description: as §1
Calorimetric Acute Feeding Assay: At approximately 8:00 hr. on the day of assay, weigh each rat and transfer to individual chambers of an open circuit calorimetry system (Oxymax, Columbus Instruments International Corporation; Columbus, Ohio), with free access to food (pre-weighed) and water, and begin measuring VO2 and VCO2. At approximately 10:00 hr., dose rats orally with vehicle or test compound, return them to their calorimetry chambers, and continue measuring VO2 and VCO2 at regular time intervals (approximately hourly). At approximately 8:00 hr. the following day, measure rat body weight and the remaining food, assuming the difference in weight of food is equal to the mass of food consumed. Calculate the 24 hr. energy expenditure (EE) and respiratory quotient (RQ) essentially as described in Chen, Y. and Heiman, M. L., Regulatory Peptide, 92:113-119 (2000). […]
Calculate EE as the product of calorific value (CV) and VO2 per body weight (kg); where CV=3.815+1.232*RQ, and RQ is the ratio of CO2 produced (VCO2) to O2 consumed (VO2). Caloric intake is calculated as (mass of 24 hr. food intake in grams)×(physiological fuel value of the diet in kilocalorie/g) per kg of body weight.

[4] = daily oral dose days 1-15, compared to control animals

D2 dopaminergic receptor, sequence (P14416 whole entry): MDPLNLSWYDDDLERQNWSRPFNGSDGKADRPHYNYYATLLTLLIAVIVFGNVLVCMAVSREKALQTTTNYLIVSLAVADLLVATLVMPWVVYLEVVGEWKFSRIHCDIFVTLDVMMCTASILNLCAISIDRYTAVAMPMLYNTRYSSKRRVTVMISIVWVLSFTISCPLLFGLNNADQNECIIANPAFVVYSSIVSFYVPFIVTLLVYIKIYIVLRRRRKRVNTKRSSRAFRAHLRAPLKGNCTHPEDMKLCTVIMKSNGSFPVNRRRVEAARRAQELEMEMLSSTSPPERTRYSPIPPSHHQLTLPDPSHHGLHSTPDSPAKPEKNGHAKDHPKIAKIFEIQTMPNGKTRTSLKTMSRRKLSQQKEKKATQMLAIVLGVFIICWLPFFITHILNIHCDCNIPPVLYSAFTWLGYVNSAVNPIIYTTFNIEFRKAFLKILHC

Compound: FC(F)(F)CNc1c(Cl)ccc2c1CCNCC2.O=C(O)CCC(=O)O [Example 2, 7-Chloro-6-(2,2,2-trifluoroethylamino)-2,3,4,5-tetrahydro-1H-benzo[d]azepine Succinic Acid Salt]
- IC50 (D2 dopaminergic receptor): > 3 µM
- lean body mass (male Long-Evans rats [1]; NMR, days -2 and 15): not changed
- cumulative body weight change (male Long-Evans rats [1]; [4]): significantly decrease
- cumulative food intake (male Long-Evans rats [1]; [4]): significantly decrease
- source of the decrease in body weight (fat mass by NMR) (male Long-Evans rats [1]; days -2 and 15): loss of adipose tissue
- nestlet shredding (relative to motor effects, rotorod test) (male NIH Swiss mice): suppress nestlet shredding at doses that were devoid of motor-impairing effects
- IC50 [2]: > 3 µM
- 24 hr. food intake (male Long-Evans rats [3]; acute assays, rats on calorie rich diet): significantly reduce 24 hr. food intake
- respiratory quotient (RQ) (male Long-Evans rats [3]; acute, 24 hr. calorimetry): dose-dependently reduced RQ
- energy expenditure during the light photoperiod (male Long-Evans rats [3]; acute, indicative of resting metabolic rate): without significantly changing
